The results in this text go back to patent publication US9747412B2, “Method for identifying activation of transferases” (HVIVO SERVICES LIMITED, priority 2010, dated 2017).

This test concerns epithelial cell line MCF10A. Put plainly: Global Kinase Activity Profiling (GKAP) of lysates of cells treated with EGF and kinase inhibitors. As to conditions: for Decrease in the number of EGF-dependent kinase activities detected: MCF10A cells pre-treated 1 h with inhibitor (5 μM LY294002 or 10 μM U0126) before 100 ng/ml EGF for 10 min. It is filed as cell-based, human.

In the case of `O=c1cc(N2CCOCC2)oc2c(-c3ccccc3)cccc12` [LY92004], the “Decrease in the number of EGF-dependent kinase activities detected” value is on record as “about 30%”.
The same measure, in the same setting: under `N#CC(=C(/N)Sc1ccccc1N)/C(C#N)=C(\N)Sc1ccccc1N` [U0126] stands “about 30%”.
“EGF: recombinant human EGF (Peprotech AF-100-15), growth factor activating kinase pathways downstream of its receptor (NSDSECPLSHDGYCLHDGVCMYIEALDKYACNCVVGYIGERCQYRDLKWWELR; UniProt P01133 971-1023, looked up)”: the “Number of kinase reactions that increased as a function of treatment” value (treatment with EGF (summary statement)) was greater than 300.
